Laboratory results from ChEMBL document CHEMBL5052856, “Inhibitors of apol1 and methods of using same” (2021).

Columns and labels:
[1] = test system: Trypanosoma brucei brucei; test: Antitrypanosomal activity against Trypanosoma brucei brucei assessed as trypanosome lysis using recombinant APOL1 protein G1 variant and measured by Alamar blue based fluoresence assay; assay type: functional, organism-based
Apolipoprotein L1 = Apolipoprotein L1 (Homo sapiens, UniProt O14791); test: Inhibition of APOL1 G1 variant in human HEK293-T-REx cells measured by Thallium assay; assay type: cell-based

SMILES | IC50 [1] | IC50 (Apolipoprotein L1)
O=C(O)CNC(=O)[C@H]1C[C@H](c2c(-c3ccc(F)cc3)[nH]c3c(F)cc(F)cc32)C1 | > 1000 nM | > 1000 nM
O=C([C@H]1C[C@H](c2c(-c3ccc(F)cc3)[nH]c3c(F)cc(F)cc32)C1)N1C[C@@H](CO)OCC12CC2 | > 1000 nM | > 1000 nM
O=C([C@H]1C[C@H](c2c(-c3ccc(F)cc3)[nH]c3c(F)cc(F)cc32)C1)N1CCN[C@H](CO)C1 | 250 nM | > 1000 nM
O=C(NCc1cnoc1)[C@H]1C[C@H](c2c(-c3ccc(F)cc3)[nH]c3c(F)cc(F)cc32)C1 | < 250 nM | 0.25 nM
O=C(NCC1(O)COC1)[C@H]1C[C@H](c2c(-c3ccc(F)cc3)[nH]c3c(F)cc(F)cc32)C1 | 250 nM | 0.25 nM
NC(=O)C1CC(c2c(-c3ccc(F)cc3)[nH]c3c(F)cc(F)cc23)C1 (configuration not stated) | 250 nM | 0.25 nM
Cn1ccc(NC(=O)[C@H]2C[C@H](c3c(-c4ccc(F)cc4)[nH]c4c(F)cc(F)cc43)C2)n1 | 250 nM | > 1000 nM
NC(=O)[C@@H]1CCCN1C(=O)[C@H]1C[C@H](c2c(-c3ccc(F)cc3)[nH]c3c(F)cc(F)cc32)C1 | > 1000 nM | > 1000 nM
CNC(=O)C(C)NC(=O)[C@H]1C[C@H](c2c(-c3ccc(F)cc3)[nH]c3c(F)cc(F)cc32)C1 (some centres not stated) | 250 nM | 0.25 nM
NC(=O)CC1CC(c2c(-c3ccc(F)cc3)[nH]c3c(F)cc(F)cc23)C1 (configuration not stated) | < 250 nM | < 250 nM
O=C(NCc1nnco1)[C@H]1C[C@H](c2c(-c3ccc(F)cc3)[nH]c3c(F)cc(F)cc32)C1 | < 250 nM | 0.25 nM
NC(=O)[C@H](CO)NC(=O)[C@H]1C[C@H](c2c(-c3ccc(F)cc3)[nH]c3c(F)cc(F)cc32)C1 | 250 nM | 0.25 nM
NC(=O)CNC[C@H]1C[C@@H](c2c(-c3ccc(F)cc3)[nH]c3c(F)cc(F)cc32)C1 | < 250 nM | < 250 nM
C[C@H](NC(=O)[C@H]1C[C@H](c2c(-c3ccc(F)cc3)[nH]c3c(F)cc(F)cc32)C1)C(=O)N(C)C | 250 nM | 0.25 nM
CC(CO)NC(=O)[C@H]1C[C@H](c2c(-c3ccc(F)cc3)[nH]c3c(F)cc(F)cc32)C1 (some centres not stated) | < 250 nM | < 250 nM
O=C(NCCn1cncn1)[C@H]1C[C@H](c2c(-c3ccc(F)cc3)[nH]c3c(F)cc(F)cc32)C1 | < 250 nM | < 250 nM
C#CC(CO)NC(=O)[C@H]1C[C@H](c2c(-c3ccc(F)cc3)[nH]c3c(F)cc(F)cc32)C1 (some centres not stated) | < 250 nM | 0.25 nM
O=C(NCC1(O)CC1)[C@H]1C[C@H](c2c(-c3ccc(F)cc3)[nH]c3c(F)cc(F)cc32)C1 | 250 nM | 0.25 nM
O=C(NCCn1cccc1)[C@H]1C[C@H](c2c(-c3ccc(F)cc3)[nH]c3c(F)cc(F)cc32)C1 | 250 nM | > 1000 nM
NC(=O)[C@@H]1CCN(C(=O)[C@H]2C[C@H](c3c(-c4ccc(F)cc4)[nH]c4c(F)cc(F)cc43)C2)C1 | > 1000 nM | > 1000 nM
CC(CO)N1CCN(C(=O)[C@H]2C[C@H](c3c(-c4ccc(F)cc4)[nH]c4c(F)cc(F)cc43)C2)CC1 (some centres not stated) | > 1000 nM | > 1000 nM
CS(=O)(=O)NC(=O)[C@H]1C[C@H](c2c(-c3ccc(F)cc3)[nH]c3c(F)cc(F)cc32)C1 | > 1000 nM | > 1000 nM
O=C(N[C@@H](CO)C(F)(F)F)[C@H]1C[C@H](c2c(-c3ccc(F)cc3)[nH]c3c(F)cc(F)cc32)C1 | < 250 nM | 0.25 nM
O=C1C[C@@H](NC(=O)[C@H]2C[C@H](c3c(-c4ccc(F)cc4)[nH]c4c(F)cc(F)cc43)C2)C(=O)N1 | < 250 nM | < 250 nM
O=C(NCC1CCOCC1)[C@H]1C[C@H](c2c(-c3ccc(F)cc3)[nH]c3c(F)cc(F)cc32)C1 | > 1000 nM | > 1000 nM
O=C(N[C@H]1CC[C@@H](CO)O1)[C@H]1C[C@H](c2c(-c3ccc(F)cc3)[nH]c3c(F)cc(F)cc32)C1 | > 1000 nM | > 1000 nM
